system: AMPA receptors; experiment: In vitro physiological testing: field EPSPs in slices of rat hippocampus (CA1); assay type: cell-based, rat (Sprague-Dawley); settings: rat hippocampal slices, 15-minute perfusion, paired-pulse, second response
Experimental: The physiological effects of the compounds of this invention were determined by in vitro tests using slices of rat hippocampus according to the following procedure. Excitatory responses (field EPSPs) were measured in hippocampal slices, which are maintained in a recording chamber continuously perfused with artificial cerebrospinal fluid (ACSF). During a 15-minute interval, the perfusion medium was switched to one containing various concentrations of the test compounds. Responses collected immediately before and at the end of drug perfusion were superimposed in order to calculate both the percent increase in EPSP amplitude and the percent increase in the width of the response at one-half the peak height (half-width).
To conduct these tests, the hippocampus was removed from anesthetized, 2-month old Sprague-Dawley rats, and in vitro slices (400 micrometers thick) were prepared and maintained in an interface chamber at 35° C. using conventional techniques. This is the procedure used by Dunwiddie and Lynch, as reported in J. Physiol. 276:353-367 (1978). The chamber was constantly perfused at 0.5 mL/min with ACSF containing (in mM): NaCl, 124; KCl, 3; KH2 PO4, 1.25; MgSO4, 2.5; CaCl2, 3.4; NaHCO3, 26; glucose, 10; and L-ascorbate, 2. A bipolar nichrome stimulating electrode was positioned in the dendritic layer (stratum radiatum) of the hippocampal subfield CA1 close to the border of subfield CA3.
Current pulses (0.1 msec) through the stimulating electrode activated a population of the Schaffer-commissural (SC) fibers, which arise from neurons in the subdivision CA3 and terminate in synapses on the dendrites of CA1 neurons. Activation of these synapses causes them to release the transmitter glutamate. Glutamate binds to the post-synaptic AMPA receptors, which then transiently open an associated ion channel and permit a sodium current to enter the postsynaptic cell. This current results in a voltage in the extracellular space (the field excitatory post-synaptic potential or field "EPSP"), which is recorded by a high impedance recording electrode positioned in the middle of the stratum radiatum of CA1.
With the intensity of the stimulation current adjusted to produce half-maximal EPSPs (typically about 1.5-2.0 mV), paired stimulation pulses were given every 40 seconds with an interpulse interval of 200 msec. The field EPSPs of the second response were digitized and analyzed to determine amplitude and half-width. If the responses are stable for 15-30 minutes (baseline), test compounds were added to the perfusion lines for a period of about 15 minutes. The perfusion was then changed back to regular ACSF.
Paired-pulse stimulation is used in this type of test because stimulation of the SC fibers in part activates interneurons that generate an inhibitory postsynaptic potential (IPSP) in the pyramidal cells of CA1. This feed-forward IPSP typically sets in after the EPSP reaches its peak. The feed-forward IPSP accelerates the repolarization and shortens the decay phase of the EPSP, and could thereby partially mask the effects of the test compounds. One of the relevant features of the feed-forward IPSP is that it cannot be reactivated for several hundred milliseconds following a stimulation pulse. This phenomenon can be employed to advantage to eliminate IPSP by delivering paired pulses separated by 200 milliseconds and using the second ("primed") response for data analysis.
The field EPSP recorded in field CA1 after stimulation of CA3 axons is known to be mediated by AMPA receptors: the receptors are present in the synapses, as reported by Kessler, et al., Brain Res. 560:337-341 (1991), and drugs that selectively block the receptor selectively block the field EPSP. […] See, for example, Staubli, et al., Psychobiology 18:377-381 (1990); Xiao, et al., Hippocampus 1:373-380 (1991); and Staubli, et al., Hippocampus 2:49-58 (1992). […]

Row | SMILES | estimated concentration required to increase the amplitude of the EPSP to 25% above baseline (+25% Amplitude) | estimated concentration required to increase the half-width of the EPSP by 50% (+50% Half-Width)
1 | COCc1ccc(C(=O)N2CCCCC2)cc1 [Compound I, 1-(4'-Methoxymethylbenzoyl)piperidine] | 0.3 mM | 0.3 mM
2 | COCc1ccc2c(c1)C(=O)N1CCCC1O2 (racemic) [Compound VII, (R,S)-7-Methoxymethyl-2,3-dihydro-1H-pyrrolo[2,1-b][1,3]benzoxazine-9(3aH)-one] | 0.3 mM | 0.2 mM
3 | CCOCc1ccc(C(=O)N2CCCCC2)cc1 [Compound III, 1-(4'-Ethoxymethylbenzoyl)piperidine] | > 1 mM | 0.2 mM
4 | O=C(c1ccc(CO)cc1)N1CCCCC1 [Compound IV, 1-(4'-Hydroxymethylbenzoyl)piperidine] | 1 mM | > 1 mM
5 | O=C(c1ccc(COc2ccc3c(c2)OCO3)cc1)N1CCCCC1 [Compound V, 1-(4'-(3",4"-Methylenedioxyphenoxy)-methylbenzoyl)piperidine] | 0.05 mM | > 0.1 mM
6 | COCc1ccc2c(c1)OC1CCCN1C2=O (racemic) [Compound VI, (R, S)-6-Methoxymethyl-2,3-dihydro-1H-pyrrolo[2,1-b][1,3]benzoxazine-9(3aH)-one] | 0.1 mM | 0.2 mM
7 | COCc1cccc(C(=O)N2CCCCC2)c1 [Compound II, 1-(3'-Methoxymethylbenzoyl)piperidine] | 0.3 mM | > 1 mM

system: not given; experiment: not given; settings: following peripheral administration in humans; cited from earlier work

Row | SMILES | fraction of drug converted to anisoyl-GABA
8 | COc1ccc(C(=O)N2CCCC2=O)cc1 [aniracetam, N-anisoyl-2-pyrrolidinone] | about 80%

From US5783587A, “Benzoyl Piperidines/pyrrolidines for enhancing synaptic response” (The Regents of the University of California, priority 1997, dated 1998)
